Test results reported in patent publication US20240148821A1, “PHARMACEUTICAL USE OF CYCLIC PEPTIDE COMPOUND” (CHUGAI SEIYAKU KABUSHIKI KAISHA, priority 2021, published 2024).
pIC50: −log10 of the molar value. Bridge positions count the residues as written; N and C are the ends. Square brackets hold non-standard residues; d marks the D form. Peptide text beside a SMILES is read from it. * marks the point of attachment. NMeAbu(3,3-F2-piperidino) = CN[C@@H](CCN1CCCC(F)(F)C1)C(=O)O; hPhe(3-Cl-4-CF3) = N[C@@H](CCc1ccc(C(F)(F)F)c(Cl)c1)C(=O)O; hPhe(3-F,4-CF3) = N[C@@H](CCc1ccc(C(F)(F)F)c(F)c1)C(=O)O; NMePhe(4-CF3) = CN[C@@H](Cc1ccc(C(F)(F)F)cc1)C(=O)O; NMePhe(2-CF3) = CN[C@@H](Cc1ccccc1C(F)(F)F)C(=O)O; Phe(3-CF3) = N[C@@H](Cc1cccc(C(F)(F)F)c1)C(=O)O; NMePhe(4-Cl) = CN[C@@H](Cc1ccc(Cl)cc1)C(=O)O; NMePhe(4-Me) = CN[C@@H](Cc1ccc(C)cc1)C(=O)O; NMeNle(6-CHF2) = CN[C@@H](CCCCC(F)F)C(=O)O; Abu(4,4,4-F3) = N[C@@H](CC(F)(F)F)C(=O)O; NMeGly(cPent) = CN[C@H](C(=O)O)C1CCCC1; Phe(3-I) = N[C@@H](Cc1cccc(I)c1)C(=O)O; NMeGly(cBu) = CN[C@H](C(=O)O)C1CCC1; NMeCha = CN[C@@H](CC1CCCCC1)C(=O)O; Hyp = O=C(O)[C@@H]1C[C@@H](O)CN1; NMeF = CN[C@@H](Cc1ccccc1)C(=O)O; NMeI = CC[C@H](C)[C@H](NC)C(=O)O; NMeD = CN[C@@H](CC(=O)O)C(=O)O; NMeL = CN[C@@H](CC(C)C)C(=O)O; NMeV = CN[C@H](C(=O)O)C(C)C; d(β3hA) = C[C@@H](N)CC(=O)O; NMeS = CN[C@@H](CO)C(=O)O; Morpholide = C1CN(*)CCO1; NMeA = CN[C@@H](C)C(=O)O; NMeAib = CNC(C)(C)C(=O)O; Nle = CCCC[C@H](N)C(=O)O; Piperidide = C1CCN(*)CC1; Pyrrolidide = C1CCN(*)C1; Ac5c = NC1(C(=O)O)CCCC1; Aze = O=C(O)[C@@H]1CCN1; Aib = CC(C)(N)C(=O)O; Sar = CNCC(=O)O; Propyl = CCC*

Each compound was assayed on Human pancreatic cancer cell line AsPC-1 (G12D mutation Kras) (assay: AsPC-1 cell growth inhibition (AsPC-1 CGI)). Conditions: read-out: AsPC-1 cell growth inhibition, 50% growth inhibitory concentration (IC50 value); 96 hours, CellTiter-Glo, values classified in ranges.
Assay type: cell-based
Protocol: Test compounds were serially dilated with dimethyl sulfoxide, and 200 nL was then dispensed to a U-bottom 96-well plate using Labcyte Echo. […] The cell suspension was dispensed to a. plate containing a test compound at 100 μL per well and incubated at 37° C. in a 5% carbon dioxide gas incubator. 96 hours later, 80 μL of CellTiter-Glo (Promega) was added to each well and fluorescence was measured.

| SMILES | pIC50 |
| --- | --- |
| CCO[C@@H]1C[C@H]2C(=O)NC3(CCCC3)C(=O)N(C)[C@@H]([C@@H](C)CC)C(=O)N(C)[C@H](C(=O)N3CCOCC3)CC(=O)N(C)[C@@H](CC(C)C)C(=O)N[C@@H]([C@@H](C)CC)C(=O)N(C)[C@@H](C)C(=O)N3CC[C@H]3C(=O)N(C)[C@@H](Cc3ccc(C(F)(F)F)cc3)C(=O)N(C)CC(=O)N[C@@H](CCc3ccc(C(F)(F)F)c(Cl)c3)C(=O)N2C1 [Compound 1330] ([NMeL]I[NMeA][Aze][NMePhe(4-CF3)][Sar][hPhe(3-Cl-4-CF3)][Hyp](Et)[Ac5c][NMeI][NMeD]-Morpholide; lactam N-11) | ≥ 7.70 |
| CC(C)C[C@H]1C(=O)N[C@@H](CC(F)(F)F)C(=O)N(C)[C@@H](C)C(=O)N2CC[C@H]2C(=O)N(C)[C@@H](CC2CCCCC2)C(=O)N(C)CC(=O)N[C@@H](CCc2ccc(C(F)(F)F)c(Cl)c2)C(=O)N2CCC[C@H]2C(=O)NC2(CCCC2)C(=O)N(C)[C@@H](C(C)C)C(=O)N(C)[C@H](C(=O)N2CCCCC2)CC(=O)N1C [Compound 1864] ([NMeL][Abu(4,4,4-F3)][NMeA][Aze][NMeCha][Sar][hPhe(3-Cl-4-CF3)]P[Ac5c][NMeV][NMeD]-Piperidide; lactam N-11) | < 6.30 |
| CCCC[C@@H]1NC(=O)[C@H](Cc2cccc(I)c2)NC(=O)CN(C)C(=O)[C@H](Cc2ccc(Cl)cc2)N(C)C(=O)CN(C)C(=O)CN(C)C(=O)[C@H]([C@@H](C)CC)NC(=O)[C@H](CC(C)C)N(C)C(=O)C[C@@H](C(=O)N2CCCCC2)N(C)C(=O)[C@H](CC(C)C)NC(=O)[C@H](Cc2ccccc2C(F)(F)F)N(C)C1=O [Compound 813] ([NMeL]I[Sar][Sar][NMePhe(4-Cl)][Sar][Phe(3-I)][Nle][NMePhe(2-CF3)]L[NMeD]-Piperidide; lactam N-11) | < 6.30 |
| CC[C@H](C)[C@@H]1NC(=O)[C@H](CC(C)C)N(C)C(=O)C[C@@H](C(=O)N2CCCCC2)N(C)C(=O)[C@H](CC(C)C)NC(=O)C(C)(C)N(C)C(=O)[C@H](Cc2cccc(C(F)(F)F)c2)NC(=O)[C@H](Cc2cccc(I)c2)NC(=O)CN(C)C(=O)[C@H](Cc2ccc(C)cc2)N(C)C(=O)CN(C)C(=O)CN(C)C1=O [Compound 376] ([NMeL]I[Sar][Sar][NMePhe(4-Me)][Sar][Phe(3-I)][Phe(3-CF3)][NMeAib]L[NMeD]-Piperidide; lactam N-11) | < 6.30 |
| CCCOC[C@H]1C(=O)N(C)CC(=O)N[C@@H](CCc2ccc(C(F)(F)F)c(F)c2)C(=O)N2CCC[C@H]2C(=O)NC2(CCCC2)C(=O)N(C)[C@@H](C2CCCC2)C(=O)N(C)[C@H](C(=O)N2CCCC2)CC(=O)N(C)[C@@H](CC(C)C)C(=O)N[C@@H]([C@@H](C)CC)C(=O)N(C)[C@@H](C)C(=O)N2CC[C@H]2C(=O)N1C [Compound 987] ([NMeL]I[NMeA][Aze][NMeS](Propyl)[Sar][hPhe(3-F,4-CF3)]P[Ac5c][NMeGly(cPent)][NMeD]-Pyrrolidide; lactam N-11) | ≥ 7.70 |
| CC[C@H](C)[C@@H]1NC(=O)[C@H](CC(C)C)N(C)C(=O)C[C@@H](C)NC(=O)[C@H](C2CCC2)N(C)C(=O)C2(CCCC2)NC(=O)[C@@H]2CCCN2C(=O)[C@H](CCc2ccc(C(F)(F)F)c(Cl)c2)NC(=O)CN(C)C(=O)[C@H](CC2CCCCC2)N(C)C(=O)CN(C)C(=O)CN(C)C1=O [Compound 183] (cyclo([Ac5c][NMeGly(cBu)][d(β3hA)][NMeL]I[Sar][Sar][NMeCha][Sar][hPhe(3-Cl-4-CF3)]P)) | < 6.30 |
| CC[C@H](C)[C@@H]1NC(=O)[C@H](CC(C)C)N(C)C(=O)C[C@@H](C)NC(=O)[C@H](C(C)C)N(C)C(=O)C(C)(C)NC(=O)[C@@H]2CCCN2C(=O)[C@H](CCc2ccc(C(F)(F)F)c(Cl)c2)NC(=O)CN(C)C(=O)[C@H](CC2CCCCC2)N(C)C(=O)CN(C)C(=O)CN(C)C1=O [Compound 641] (cyclo([Aib][NMeV][d(β3hA)][NMeL]I[Sar][Sar][NMeCha][Sar][hPhe(3-Cl-4-CF3)]P)) | < 6.30 |
| CC[C@H](C)[C@@H]1NC(=O)[C@H](C)N(C)C(=O)C[C@@H](C)NC(=O)[C@H](C(C)C)N(C)C(=O)[C@H](Cc2ccccc2)N(C)C(=O)[C@H](CC(C)C)N(C)C(=O)[C@H](CCc2ccc(C(F)(F)F)c(F)c2)NC(=O)CN(C)C(=O)[C@H](Cc2ccc(Cl)cc2)N(C)C(=O)[C@@H]2CCN2C(=O)CN(C)C1=O [Compound 782] (cyclo([Aze][NMePhe(4-Cl)][Sar][hPhe(3-F,4-CF3)][NMeL][NMeF][NMeV][d(β3hA)][NMeA]I[Sar])) | < 6.30 |
| CC[C@H](C)[C@@H]1NC(=O)[C@H](CC(C)C)N(C)C(=O)C[C@@H](C)NC(=O)[C@H](CC(C)C)N(C)C(=O)C(C)(C)NC(=O)[C@H](CC(C)C)N(C)C(=O)[C@H](CCc2ccc(C(F)(F)F)c(F)c2)NC(=O)CN(C)C(=O)[C@H](CCCCC(F)F)N(C)C(=O)CN(C)C(=O)CN(C)C1=O [Compound 1526] (cyclo([Aib][NMeL][d(β3hA)][NMeL]I[Sar][Sar][NMeNle(6-CHF2)][Sar][hPhe(3-F,4-CF3)][NMeL])) | < 6.30 |
| CC[C@H](C)[C@@H]1NC(=O)[C@H](CC(C)C)N(C)C(=O)C[C@@H](C(=O)N(C)C)N(C)C(=O)[C@H](C2CCCC2)N(C)C(=O)[C@H](C(C)C)NC(=O)[C@H](CCN2CCCC(F)(F)C2)N(C)C(=O)[C@H](CCc2ccc(C(F)(F)F)c(Cl)c2)NC(=O)CN(C)C(=O)[C@H](CC2CCCCC2)N(C)C(=O)[C@@H]2CCN2C(=O)[C@H](C)N(C)C1=O [Compound 389] ([NMeL]I[NMeA][Aze][NMeCha][Sar][hPhe(3-Cl-4-CF3)][NMeAbu(3,3-F2-piperidino)]V[NMeGly(cPent)][NMeD]-NMe2; lactam N-11) | < 6.30 |
